{"source": "PubChem BioAssay AID2060887", "about": "(Molecular Pharmacology Branch, DTP, NCI, 2025);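 further: spheroids exposed to compounds for 7 days before reading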;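 on viability, T/C: 100% = DMSO vehicle control viability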", "system": "782815-120-R-J1-PDC complex spheroid viability", "assay": "Anticancer human tumor 782815-120-R-J1-PDC patient-derived colon adenocarcinoma cell line growth inhibition [RAS]", "details": "for IC50: curve of first compound; for viability, T/C: stronger effect = lower value", "procedure,_shortened": "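Agents were tested in combination matrices in half-log decrements from a top concentration at or near clinical Cmax (10 microM if undetermined). Targets were multi-cell spheroids of tumour lines plus HUVEC and MSC stromal cells.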", "key": {"[1]": {"details": "second compound 0.00316 µM, first compound 0.000949 µM"}, "[2]": {"details": "second compound 0.00316 µM, first compound 0.003 µM"}, "[3]": {"details": "second compound 0.00316 µM, first compound 0.00949 µM"}, "[4]": {"details": "second compound 0.00316 µM, first compound 0.03 µM"}, "[5]": {"details": "second compound 0.00316 µM, first compound 0.0949 µM"}, "[6]": {"details": "second compound 0.00316 µM, first compound 0.3 µM"}, "[7]": {"details": "second compound 0.01 µM, first compound 0.000949 µM"}, "[8]": {"details": "second compound 0.01 µM, first compound 0.003 µM"}, "[9]": {"details": "second compound 0.01 µM, first compound 0.00949 µM"}, "[10]": {"details": "second compound 0.01 µM, first compound 0.03 µM"}, "[11]": {"details": "second compound 0.01 µM, first compound 0.0949 µM"}, "[12]": {"details": "second compound 0.01 µM, first compound 0.3 µM"}, "[13]": {"details": "second compound 0.0316 µM, first compound 0.000949 µM"}, "[14]": {"details": "second compound 0.0316 µM, first compound 0.003 µM"}, "[15]": {"details": "second compound 0.0316 µM, first compound 0.00949 µM"}, "[16]": {"details": "second compound 0.0316 µM, first compound 0.03 µM"}, "[17]": {"details": "second compound 0.0316 µM, first compound 0.0949 µM"}, "[18]": {"details": "second compound 0.0316 µM, first compound 0.3 µM"}, "[19]": {"details": "second compound 0.1 µM, first compound 0.000949 µM"}, "[20]": {"details": "second compound 0.1 µM, first compound 0.003 µM"}, "[21]": {"details": "second compound 0.1 µM, first compound 0.00949 µM"}, "[22]": {"details": "second compound 0.1 µM, first compound 0.03 µM"}, "[23]": {"details": "second compound 0.1 µM, first compound 0.0949 µM"}, "[24]": {"details": "second compound 0.1 µM, first compound 0.3 µM"}, "[25]": {"details": "second compound 0.316 µM, first compound 0.000949 µM"}, "[26]": {"details": "second compound 0.316 µM, first compound 0.003 µM"}, "[27]": {"details": "second compound 0.316 µM, first compound 0.00949 µM"}, "[28]": {"details": "second compound 0.316 µM, first compound 0.03 µM"}, "[29]": {"details": "second compound 0.316 µM, first compound 0.0949 µM"}, "[30]": {"details": "second compound 0.316 µM, first compound 0.3 µM"}, "[31]": {"details": "second compound 1 µM, first compound 0.000949 µM"}, "[32]": {"details": "second compound 1 µM, first compound 0.003 µM"}, "[33]": {"details": "second compound 1 µM, first compound 0.00949 µM"}, "[34]": {"details": "second compound 1 µM, first compound 0.03 µM"}, "[35]": {"details": "second compound 1 µM, first compound 0.0949 µM"}, "[36]": {"details": "second compound 1 µM, first compound 0.3 µM"}}, "data": [{"smiles": "CC1(C)CCC(Nc2ncc(C(F)(F)F)c(-c3c[nH]c4c(P(C)(C)=O)c(C#N)ccc34)n2)CN1", "note": "(centres undefined) + C=CC(=O)N1CCN(c2nc(OCC3CCCN3C)nc3c(F)c(-c4nc(N)cc(C)c4C(F)(F)F)c(Cl)cc23)C(C)C1", "values": [{"measurement": "IC50", "setting": "second compound 0.00316 µM", "value": "> 300", "unit": "nM"}, {"measurement": "IC50", "setting": "second compound 0.01 µM", "value": "> 300", "unit": "nM"}, {"measurement": "IC50", "setting": "second compound 0.0316 µM", "value": "> 300", "unit": "nM"}, {"measurement": "IC50", "setting": "second compound 0.1 µM", "value": "> 300", "unit": "nM"}, {"measurement": "IC50", "setting": "second compound 0.316 µM", "value": "> 300", "unit": "nM"}, {"measurement": "IC50", "setting": "second compound 1 µM", "value": 270, "unit": "nM"}, {"measurement": "viability, T/C", "setting": "[1]", "value": 106, "unit": "%"}, {"measurement": "viability, T/C", "setting": "[2]", "value": 113, "unit": "%"}, {"measurement": "viability, T/C", "setting": "[3]", "value": 88.4, "unit": "%"}, {"measurement": "viability, T/C", "setting": "[4]", "value": 63.7, "unit": "%"}, {"measurement": "viability, T/C", "setting": "[5]", "value": 68.8, "unit": "%"}, {"measurement": "viability, T/C", "setting": "[6]", "value": 58.3, "unit": "%"}, {"measurement": "viability, T/C", "setting": "[7]", "value": 97.7, "unit": "%"}, {"measurement": "viability, T/C", "setting": "[8]", "value": 101, "unit": "%"}, {"measurement": "viability, T/C", "setting": "[9]", "value": 88.7, "unit": "%"}, {"measurement": "viability, T/C", "setting": "[10]", "value": 72.9, "unit": "%"}, {"measurement": "viability, T/C", "setting": "[11]", "value": 49.5, "unit": "%"}, {"measurement": "viability, T/C", "setting": "[12]", "value": 59.6, "unit": "%"}, {"measurement": "viability, T/C", "setting": "[13]", "value": 107, "unit": "%"}, {"measurement": "viability, T/C", "setting": "[14]", "value": 103, "unit": "%"}, {"measurement": "viability, T/C", "setting": "[15]", "value": 90.8, "unit": "%"}, {"measurement": "viability, T/C", "setting": "[16]", "value": 77.2, "unit": "%"}, {"measurement": "viability, T/C", "setting": "[17]", "value": 57.8, "unit": "%"}, {"measurement": "viability, T/C", "setting": "[18]", "value": 52.3, "unit": "%"}, {"measurement": "viability, T/C", "setting": "[19]", "value": 107, "unit": "%"}, {"measurement": "viability, T/C", "setting": "[20]", "value": 104, "unit": "%"}, {"measurement": "viability, T/C", "setting": "[21]", "value": 88.7, "unit": "%"}, {"measurement": "viability, T/C", "setting": "[22]", "value": 68.2, "unit": "%"}, {"measurement": "viability, T/C", "setting": "[23]", "value": 55.5, "unit": "%"}, {"measurement": "viability, T/C", "setting": "[24]", "value": 56.8, "unit": "%"}, {"measurement": "viability, T/C", "setting": "[25]", "value": 103, "unit": "%"}, {"measurement": "viability, T/C", "setting": "[26]", "value": 97.2, "unit": "%"}, {"measurement": "viability, T/C", "setting": "[27]", "value": 90.9, "unit": "%"}, {"measurement": "viability, T/C", "setting": "[28]", "value": 67.2, "unit": "%"}, {"measurement": "viability, T/C", "setting": "[29]", "value": 77.3, "unit": "%"}, {"measurement": "viability, T/C", "setting": "[30]", "value": 55.3, "unit": "%"}, {"measurement": "viability, T/C", "setting": "[31]", "value": 120, "unit": "%"}, {"measurement": "viability, T/C", "setting": "[32]", "value": 97.1, "unit": "%"}, {"measurement": "viability, T/C", "setting": "[33]", "value": 85.8, "unit": "%"}, {"measurement": "viability, T/C", "setting": "[34]", "value": 63.3, "unit": "%"}, {"measurement": "viability, T/C", "setting": "[35]", "value": 65.2, "unit": "%"}, {"measurement": "viability, T/C", "setting": "[36]", "value": 53.3, "unit": "%"}]}, {"smiles": "CCc1c2c(nc3ccc(O)cc13)-c1cc3c(c(=O)n1C2)COC(=O)[C@]3(O)CC", "note": "+ C=CC(=O)N1CCN(c2nc(OCC3CCCN3C)nc3c(F)c(-c4nc(N)cc(C)c4C(F)(F)F)c(Cl)cc23)C(C)C1", "values": [{"measurement": "IC50", "setting": "second compound 0.00316 µM", "value": 4.1, "unit": "nM"}, {"measurement": "IC50", "setting": "second compound 0.01 µM", "value": 3.93, "unit": "nM"}, {"measurement": "IC50", "setting": "second compound 0.0316 µM", "value": 4.6, "unit": "nM"}, {"measurement": "IC50", "setting": "second compound 0.1 µM", "value": 3.92, "unit": "nM"}, {"measurement": "IC50", "setting": "second compound 0.316 µM", "value": 4.07, "unit": "nM"}, {"measurement": "IC50", "setting": "second compound 1 µM", "value": 4.39, "unit": "nM"}, {"measurement": "viability, T/C", "setting": "[1]", "value": 91.2, "unit": "%"}, {"measurement": "viability, T/C", "setting": "[2]", "value": 60.4, "unit": "%"}, {"measurement": "viability, T/C", "setting": "[3]", "value": 22.1, "unit": "%"}, {"measurement": "viability, T/C", "setting": "[4]", "value": 9.72, "unit": "%"}, {"measurement": "viability, T/C", "setting": "[5]", "value": 3.7, "unit": "%"}, {"measurement": "viability, T/C", "setting": "[6]", "value": 1.61, "unit": "%"}, {"measurement": "viability, T/C", "setting": "[7]", "value": 97.2, "unit": "%"}, {"measurement": "viability, T/C", "setting": "[8]", "value": 58.9, "unit": "%"}, {"measurement": "viability, T/C", "setting": "[9]", "value": 21.3, "unit": "%"}, {"measurement": "viability, T/C", "setting": "[10]", "value": 9.84, "unit": "%"}, {"measurement": "viability, T/C", "setting": "[11]", "value": 3.15, "unit": "%"}, {"measurement": "viability, T/C", "setting": "[12]", "value": 1.53, "unit": "%"}, {"measurement": "viability, T/C", "setting": "[13]", "value": 99.2, "unit": "%"}, {"measurement": "viability, T/C", "setting": "[14]", "value": 67.4, "unit": "%"}, {"measurement": "viability, T/C", "setting": "[15]", "value": 20, "unit": "%"}, {"measurement": "viability, T/C", "setting": "[16]", "value": 9.96, "unit": "%"}, {"measurement": "viability, T/C", "setting": "[17]", "value": 3.02, "unit": "%"}, {"measurement": "viability, T/C", "setting": "[18]", "value": 1.51, "unit": "%"}, {"measurement": "viability, T/C", "setting": "[19]", "value": 92.8, "unit": "%"}, {"measurement": "viability, T/C", "setting": "[20]", "value": 59.4, "unit": "%"}, {"measurement": "viability, T/C", "setting": "[21]", "value": 19.2, "unit": "%"}, {"measurement": "viability, T/C", "setting": "[22]", "value": 8.28, "unit": "%"}, {"measurement": "viability, T/C", "setting": "[23]", "value": 4.23, "unit": "%"}, {"measurement": "viability, T/C", "setting": "[24]", "value": 1.49, "unit": "%"}, {"measurement": "viability, T/C", "setting": "[25]", "value": 100, "unit": "%"}, {"measurement": "viability, T/C", "setting": "[26]", "value": 60.7, "unit": "%"}, {"measurement": "viability, T/C", "setting": "[27]", "value": 20.4, "unit": "%"}, {"measurement": "viability, T/C", "setting": "[28]", "value": 9.08, "unit": "%"}, {"measurement": "viability, T/C", "setting": "[29]", "value": 3.9, "unit": "%"}, {"measurement": "viability, T/C", "setting": "[30]", "value": 1.28, "unit": "%"}, {"measurement": "viability, T/C", "setting": "[31]", "value": 99.3, "unit": "%"}, {"measurement": "viability, T/C", "setting": "[32]", "value": 65, "unit": "%"}, {"measurement": "viability, T/C", "setting": "[33]", "value": 19.3, "unit": "%"}, {"measurement": "viability, T/C", "setting": "[34]", "value": 10.1, "unit": "%"}, {"measurement": "viability, T/C", "setting": "[35]", "value": 3.83, "unit": "%"}, {"measurement": "viability, T/C", "setting": "[36]", "value": 1.36, "unit": "%"}]}]}
